Consider eleven molecules from paper PMC6882365, “Directed evolution of the PcaV allosteric transcription factor to generate a biosensor for aromatic aldehydes” (Journal of Biological Engineering, 2019).

The target in data set [1] is T1, Van2 (PcaV mutant) (Streptomyces coelicolor, UniProt Q9XAM6, I110V/M113S/N114A).
T1 construct: gene SCO6704
Put plainly: cell-based. The following applies: read-out: E. coli RARE eGFP derepression reporter, 2.5 mM.

Data set [2] has as its target T2, PcaV (Streptomyces coelicolor, UniProt Q9XAM6).
T2 construct: gene SCO6704
The data set can be described thus: E. coli PcaV/PPV-eGFP derepression reporter, dose response. The class given is cell-based.

The target of data set [3] is T3, PcaV I110V (Streptomyces coelicolor, UniProt Q9XAM6, I110V).
T3 construct: gene SCO6704
Put plainly: cell-based. To be noted: read-out: Max/Min (2.5 mM induction) / PCA.

For data set [4], the target named is T4, Van2 (PcaV mutant) (Streptomyces coelicolor, UniProt Q9XAM6, I110V/M113S/N114A).
T4 construct: gene SCO6704; His-TEV tag-cleaved purified protein, homodimer
T4 sequence (Q9XAM6 1-154 I110V/M113S/N114A): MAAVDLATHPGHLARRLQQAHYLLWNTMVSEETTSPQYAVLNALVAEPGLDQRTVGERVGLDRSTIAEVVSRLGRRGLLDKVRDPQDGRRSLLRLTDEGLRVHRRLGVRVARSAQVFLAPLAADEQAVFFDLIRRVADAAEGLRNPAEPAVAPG
The data set can be described thus: EMSA titration ([…]), disruption of the Van2-PV DNA complex; no response in cells. Type of data set: biochemical. On the technique in general: A gel shift assay detects complexes by their altered migration in electrophoresis.

Data set [5] addresses T5, PcaV N114A (Streptomyces coelicolor, UniProt Q9XAM6, N114A).
T5 construct: gene SCO6704
Put plainly: cell-based. To be noted: read-out: Max/Min (2.5 mM induction) / PCA.

The target of data set [6] is PcaV allosteric transcription factor from Streptomyces coelicolor (Streptomyces coelicolor). Put plainly: SEC-MALS; 0.75 mL at 1.5 mg/mL loaded on Superdex 10/300 GL; in the absence of the effector. (In gel filtration, larger molecules generally elute earlier.)
The target in data set [7] is Van2 aTF (PcaV I110V M113S N114A) (Streptomyces coelicolor). The description is as above.
Data set [8] has as its target T6, Van2 (Streptomyces coelicolor, UniProt Q9XAM6 1-154, I110V;M113S;N114A).
T6 sequence: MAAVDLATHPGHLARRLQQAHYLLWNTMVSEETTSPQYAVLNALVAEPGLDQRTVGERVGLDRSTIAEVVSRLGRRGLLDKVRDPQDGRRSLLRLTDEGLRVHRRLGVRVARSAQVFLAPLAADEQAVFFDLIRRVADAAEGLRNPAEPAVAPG
Put plainly: EMSA; no effector; 500 nM protein, 500 pM probe; SPR: 10 mM Hepes, 150 mM NaCl, pH 7.4 (temperature not stated); EMSA: 50 mM Tris-HCl, 50 mM KCl, 5 mM MgCl2, 1 mM EDTA, 5% glycerol, 0.1 ug poly(dI-dC), 1 mM DTT, 30 C 20 min (+30 min with ligand). The following applies: protein: recombinant; tags: N-terminal His-TEV, removed by TEV protease; chain copies: 2; label: 5' IRD700 on both strands; blunt.

The target of data set [9] is T6, Van2. Put plainly: SPR; no effector; 9.4-600 nM protein; SPR: 10 mM Hepes, 150 mM NaCl, pH 7.4 (temperature not stated); EMSA: 50 mM Tris-HCl, 50 mM KCl, 5 mM MgCl2, 1 mM EDTA, 5% glycerol, 0.1 ug poly(dI-dC), 1 mM DTT, 30 C 20 min (+30 min with ligand). The following applies: protein: recombinant; tags: N-terminal His-TEV, removed by TEV protease; chain copies: 2; label: 5' biotin on strand 1; blunt. In general terms: Surface plasmon resonance follows binding to a sensor surface in real time, without labels.

For data set [10], the target named is T7, PcaV (Streptomyces coelicolor, UniProt Q9XAM6 1-154).
T7 sequence: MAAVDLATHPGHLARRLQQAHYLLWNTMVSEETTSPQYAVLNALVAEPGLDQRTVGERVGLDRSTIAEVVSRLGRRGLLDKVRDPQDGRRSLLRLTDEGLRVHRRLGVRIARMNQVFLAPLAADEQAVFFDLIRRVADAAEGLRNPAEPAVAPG
The data set can be described thus: EMSA; no effector; 250 nM protein, 500 pM probe; SPR: 10 mM Hepes, 150 mM NaCl, pH 7.4 (temperature not stated); EMSA: 50 mM Tris-HCl, 50 mM KCl, 5 mM MgCl2, 1 mM EDTA, 5% glycerol, 0.1 ug poly(dI-dC), 1 mM DTT, 30 C 20 min (+30 min with ligand). The following applies: protein: recombinant; tags: N-terminal His-TEV, removed by TEV protease; chain copies: 2; label: 5' IRD700 on both strands; blunt.

For `O=Cc1ccccc1O` [2-hydroxybenzaldehyde], the fold induction at 2500 µM in data set [1] was > 6.

`O=Cc1ccc(O)c(O)c1` [3,4-dihydroxybenzaldehyde]: in [1], the fold induction at 2500 µM is > 6.

On to `O=C(O)c1cccc(O)c1` [3HB, 3-hydroxybenzoic acid], for which, in [2], the “E. coli PcaV/PPV-eGFP derepression reporter, dose response” value is 3-hydroxybenzoic acid (3HB) and 4-hydroxybenzoic acid (4HB), as observed by fitting the dose response curves.

As to `Cc1cc(C=O)ccc1O` [4-hydroxy-3-methylbenzaldehyde], the fold induction at 2500 µM in [1] was > 6.

With `O=C(O)c1ccc(O)cc1` [4HB, 4-hydroxybenzoic acid], the “E. coli PcaV/PPV-eGFP derepression reporter, dose response” value in data set [2] was 3-hydroxybenzoic acid (3HB) and 4-hydroxybenzoic acid (4HB), as observed by fitting the dose response curves.

Take `O=C(O)c1ccc(O)c(O)c1` [PCA, 3,4-dihydroxybenzoic acid]: the fold induction at 2500 µM was 304 in data set [3] and 18 in data set [5]. In data set [4], the “EMSA titration (2.5-12.5 mM), disruption of the Van2-PV DNA complex; no response” value is on record as “Van2 responds to vanillin but is still responsive to PCA in contradiction with the observed in vivo biosensor performance”.

On to “PcaV allosteric transcription factor from Streptomyces coelicolor (natural protein)”, for which, in [6], the stoichiometry N – broadly, the number of molecules, sites or subunits per partner or assembly – stood at 2.

In [7], Van2 aTF (PcaV I110V M113S N114A) displayed a stoichiometry N of 2.

B1: Rnd Probe (IR700 duplex) (dsDNA)
DNA 1: GAGTTAGAGTACGCGTTAAACACTTCACAGAT
DNA 2: ATCTGTGAAGTGTTTAACGCGTACTCTAACTC
Regarding B1, in data set [8], the binding result is reported as “no binding”.

B2: PV Probe Bio (dsDNA)
DNA 1: TTGACTATACTCAGTGCCCTGACTATGATACT
DNA 2: AGTATCATAGTCAGGGCACTGAGTATAGTCAA
Take B2: the dissociation constant (Kd) (in general, a measure of binding affinity in units of concentration) in [9] worked out at 86.7 nM.

B3: PV Probe (IR700 duplex) (dsDNA)
DNA 1: TTGACTATACTCAGTGCCCTGACTATGATACT
DNA 2: AGTATCATAGTCAGGGCACTGAGTATAGTCAA
Take B3: the binding result in data set [10] is “binds”.
